Data set [1] is described as follows: Food intake and body weight of mice on 2H2O. To be noted: 0.012 ml/gm injection then 4% 2H2O in drinking water. The data set is classed as in vivo. As to the method: Mice were injected with ^2H2O (deuterated water) 0.012 ml/gm. […] Twenty-one days following the start of ^2H2O administration, mice were fasted for four hours, anesthetized with isoflurane and exsanguinated via heart puncture.

Data set [2] is described as follows: Tolerability of maintained 2H2O body water enrichment. Particulars: 1-10% of body water labeled, weeks or months; >100 people; rapid changes in enrichment prevented. The data set is classed as in vivo, humans. The source says: Relatively high body water enrichments of ^2H2O (e.g., 1-10% of the total body water is labeled) may be achieved relatively inexpensively using the techniques of the invention. This water enrichment is relatively constant and stable as these levels are maintained for weeks or months in humans and in experimental animals without any evidence of toxicity. This finding in a large number of human subjects (>100 people) is contrary to previous concerns about vestibular toxicities at high doses of ^2H2O. The Applicant has discovered that as long as rapid changes in body water enrichment are prevented (e.g., by initial administration in small, divided doses), high body water enrichments of ^2H2O can be maintained with no toxicities. For example, the low cost of commercially available ^2H2O allows long-term maintenance of enrichments in the 1-5% range at relatively low expense (e.g., calculations reveal a lower cost for 2 months labeling at 2% ^2H2O enrichment, and thus 7-8% enrichment in the alanine precursor pool, than for 12 hours labeling of ^2H-leucine at 10% free leucine enrichment, and thus 7-8% enrichment in leucine precursor pool for that period).

The next data set concerns liver cell. Description: Liver cell proliferation in mice during griseofulvin administration (2H2O labeling). Particulars: 1% griseofulvin in chow (low dose, NOEL), 5 days. The data set is classed as in vivo. As to the method:
Cell proliferation was measured as described, supra.

The nature of data set [3]: Plasma liver enzymes in mice given griseofulvin. It is filed as in vivo. Particulars: 1% dose; data not shown.
The test system of the next data set is mammary epithelial cell. Description: Mammary epithelial cell (MEC) proliferation in intact and ovariectomized rats by 2H2O labeling, GC/MS. It is filed as in vivo, Sprague-Dawley rats. To be noted: for MEC proliferation: all doses, treated and labeled for 7 days, in the presence or absence of estrogen; for MEC proliferation rates: even the lowest dose; for mammary epithelial cell proliferation: intact female rats and ovariectomized rats, very low doses.

In the next data set the test system is neurons. Briefly: Neuron turnover (fractional replacement) in mice by 2H2O labeling and GC/MS of DNA from isolated neurons. The data set is classed as in vivo. As to the method:
Groups of mice (n=5/group) were given a bolus of ^2H2O (Spectra Isotopes, Columbia, Md.) to 5% ^2H2O in body water and were given 8% ^2H2O as drinking water. Mice were maintained on ^2H2O for 45 days, during which period they also received injections every other day of either lipopolysaccharide (LPS) (Sigma, St. Louis, Mo.) in saline at a dose of 1 or 4 mg/kg body weight, or no injection.
Mice were euthanized with carbon dioxide, and their brains were removed. Hippocampi were dissected out, trypsinized, and stained with tetanus toxoid (Ttx), a specific marker for neurons, and then stained with a FITC labeled anti-Ttx antibody (Roche, Basel Switzerland). […]

In a further data set the test system is neuroprogenitor cells. To be noted: chronic exposure to LPS; Ekdahl et al. 2003; cited from earlier work.
Another data set deals with adipocytes. Briefly: Adipocyte proliferation in ob/ob mice by 2H2O labeling of adipose cell DNA. The data set is classed as in vivo. To be noted: murine leptin 2 μg/day s.c. osmotic pump, 21 days 2H2O. From the text:
Four week old, female, C57/bl6j mice (Jackson Labs Bar Harbor, […].) were studied: C57/bl6j ^+/? controls (con), ad libitum fed C57/bl6j^lep-/lep- (ob/ob), leptin treated ob/ob (ob-lep) and food restricted ob/ob (ob-r). Mice were housed individually in hanging wire cages and fed AIN 93 purified diets (Bio Serv, Frenchtown, N.J.). Mice were given 3 days to acclimate to the environment, after which mice grew normally. All treatments and interventions began 5 days prior to the start of labeling with ^2H2O.
Ob-lep mice received murine leptin subcutaneously at a dose of 2 μg/day (Amgen, Thousand Oaks Calif.) via a 28 day Alzet mini osmotic pump (Alza Corp. Palo Alto Calif.).
Mice were injected with ^2H2O (deuterated water) 0.012 ml/gm. […]
The frozen slurry of adipocytes was lyophilized, the dry weight of the sample was determined and then the samples were digested and DNA isolated as described elsewhere (Neese, R. A. et al. Advances in the Stable Isotope-Mass Spectrometric Measurement of DNA Synthesis and Cell Proliferation. Anal Biochem 298, 189-195. (2001)) using Quiagen DNeasy tissue kits. The yield of DNA from each sample was determined with a Pharmacia Biotec Genequant II spectrophotometer. […]
PTA samples were analyzed for incorporation of deuterium on a HP model 5973 MS with a 6890 GC and auto-sampler (Agilent, Palo Alto, Calif.). […]

“Also recorded” adds a separate entry of the source.

Take `[2H]O[2H]` [^2H2O, deuterated water]: the “food intake or body weight” value in data set [1] is reported as “no impact on food intake or body weight”. Further, the “toxicity of maintained body water enrichment” value in data set [2] was “no toxicities”.
Consider `COC1=CC(=O)C[C@@H](C)[C@]12Oc1c(Cl)c(OC)cc(OC)c1C2=O` [griseofulvin], for which, in the data set with liver cell, the liver cell proliferation result is “increased liver cell proliferation”. In addition, the plasma liver enzymes result in data set [3] was “did not induce elevated levels of plasma liver enzymes”.
For `O=C(c1ccc(OCCN2CCCCC2)cc1)c1c(-c2ccc(O)cc2)sc2cc(O)ccc12` [raloxifene], in the data set on mammary epithelial cell, the MEC proliferation entry is “Significant reductions of MEC proliferation”, the MEC proliferation rates result was “efficacious anti-proliferative agents” and the “mammary epithelial cell proliferation” value was “decrease in mammary epithelial cell proliferation”.
For `CC/C(=C(\c1ccccc1)c1ccc(OCCN(C)C)cc1)c1ccccc1` [tamoxifen], in that order: “Significant reductions of MEC proliferation”, “efficacious anti-proliferative agents” and “decrease in mammary epithelial cell proliferation”.
As for lipopolysaccharide [LPS], the “neuron turnover (fractional replacement of neurons)” value in the data set with neurons (LPS 1 or 4 mg/kg injected every other day, 45 days with 2H2O, vs control, p<0.05, dose dependent) was “statistically significant increase in neuron turnover; also recorded: turnover more rapidly”. Also, the “calculated fractional synthesis rate (f) of new neurons” value in the data set with neurons (after exposure to LPS, control approximately 7%) is given as approximately 14%. The neurogenesis entry in the data set on neuroprogenitor cells is “neurogenesis was observed to decrease”.

B1: leptin: murine leptin (Amgen) given subcutaneously via osmotic pump (protein, UniProt P41160 22-167, looked up)
Leptin: VPIQKVQDDTKTLIKTIVTRINDISHTQSVSAKQRVTGLDFIPGLHPILSLSKMDQTLAVYQQVLTSLPSQNVLQIANDLENLRDLLHLLAFSKSCSLPQTSGLQKPESLDGVLEASLYSTEVVALSRLQGSLQDILQQLDVSPEC
In the case of B1, the “adipocyte proliferation (fat cell proliferation)” value in the data set with adipocytes is “decrease in adipocyte proliferation”.
